Test results from US4315941A, “Urazole analogs of prostaglandin derivatives” (Beecham Group Limited, priority 1979, dated 1982).

Tested on: 5-hydroxytryptamine or histamine induced bronchoconstriction
Test: Bronchodilation activity: inhibition of 5-hydroxytryptamine or histamine induced bronchoconstriction in the anaesthetised artificially respired guinea-pig (Konzett-Rossler preparation)
Type: in vivo, guinear-pig
Conditions: Cavia porcellus, iv, 5-hydroxytryptamine or histamine induced bronchoconstriction (Konzett-Rossler)
Excerpt: The compounds were examined for their ability to inhibit 5-hydroxytryptamine or histamine induced bronchoconstriction in the anaesthetised artificially respired guinear-pig (Konzett-Rossler preparation).

| Structure (SMILES) | ED50 [mg/kg] |
| --- | --- |
| CCCCC(C)C(C)(O)CCn1c(=O)n(C)c(=O)n1CCCCCCCCC(C)O (stereo not shown) [Compound 1, 1-(9'-Hydroxydecyl)-2-(3"-hydroxy-3",4"-dimethyloctyl)-4-methyl-1,2,4-triazolidine-3,5-dione] | 0.02 |
| CCCCC(C)C(C)(O)CCn1c(=O)n(C)c(=O)n1C/C=C\CCCCC(C)O (stereo not shown) [Compound 3] | 0.0175 |
| CCCCCCC(C)(O)CCn1c(=O)n(C)c(=O)n1CCCCCCCC(C)O (stereo not shown) [Compound 4] | 0.0042 |
| CC(O)CCCC/C=C\Cn1c(=O)n(C)c(=O)n1CCC(C)(O)C1CCCCC1 (stereo not shown) [Compound 7] | 0.16 |
